# pIC50: −log10 of the molar value. “Also recorded” adds a separate entry of the source.
# Assays:
# Mtb H37Rv [1] = test: modified 96-well microplate Alamar blue assay (MABA), growth inhibition; assay type: cell-based, Mycobacterium tuberculosis; settings: for growth inhibition activity in words: SAR discussion; for MIC: Mycobacterium tuberculosis, H37RV, Mtb H37Rv
# [2] = test system: autoluminescent Mtb strain derived from Mtb H37Rv in THP-1 cells; test: microbe, parasite or virus in culture; assay type: cell-based; settings: Mycobacterium tuberculosis; for pIC50: THP-1, 72 h, read-out: IC50 intracellular activity
# Mtb H37Rv [3] = test: microbe, parasite or virus in culture; assay type: cell-based; settings: Mycobacterium tuberculosis
# Mycobacterium abscessus = test: MIC against Mycobacterium abscessus, OD590; settings: Mycobacteroides abscessus
# Procedure: The activity of compounds against Mycobacterium abscessus and Mycobacterium avium was assessed under aerobic conditions by determining the minimum inhibitory concentration of compound (MIC). The strains were M. abscessus subsp. bollettii 103 and M. avium subsp. avium 2285 (S). The assay was based on measurement of growth in liquid medium of each strain where the readout is optical density (OD) or metabolic activity (using Alamar blue).
# The MIC of compound against Mycobacterium abscessus and Mycobacterium avium was determined by measuring bacterial growth in the presence of test compounds. Compounds were prepared as 20-point two-fold serial dilutions in DMSO and diluted into 7H9-Tw-OADC medium in 96-well plates with a final DMSO concentration of 2%. The highest concentration of compound was 200 μM where compounds were soluble in DMSO at 10 mM. Each plate included assay controls for background (medium/DMSO only, no bacterial cells), zero growth (100 μM rifampicin) and maximum growth (DMSO only), as well as a rifampicin dose response curve.
# For Mycobacterium abscessus, plates were inoculated with M. abscessus and incubated for 3 days at 37° C.; growth was measured by OD590. […] Rifampicin was included once in each run. […] If no point reached 75% inhibition, the MIC was reported as >maximum concentration tested.
# [4] = test system: mycolic acid biosynthesis in Mtb; test: mycolic acid biosynthesis, [1,2-14C]acetate labeling, TLC and autoradiography; assay type: cell-based, Mycobacterium tuberculosis; settings: 0.4-4 μg/ml, 16 h
# Mtb H37Rv mc26206 = test: microbe, parasite or virus in culture; assay type: cell-based; settings: Mycobacterium tuberculosis
# Mtb H37Rv [5] = test: minimum bactericidal concentration (MBC), kill kinetics over 21 days; assay type: cell-based; settings: Mycobacterium tuberculosis, 504 h, aerobic, 7H9-Tw-OADC medium, 2-log kill in 21 days
# [6] = test system: THP-1 human monoocytic cell line; test: cytotoxicity towards PMA-differentiated THP-1 cells (CellTiter-Glo); assay type: cell-based
compound,measurement,setting,value
"CCOC(=O)c1c(NC(=O)c2c(F)c(F)c(F)c(F)c2F)sc2c1CCN(C(=O)OC(C)(C)C)C2 [4{2,3,0}, 6-(Tert-butyl) 3-ethyl 2-(perfluorobenzamido)-4,7-dihydrothieno[2,3-c]pyridine-3,6(5H)-dicarboxylate]",growth inhibition activity in words,Mtb H37Rv [1],inactive
"CCOC(=O)c1c(NC(=O)c2c(F)c(F)c(F)c(F)c2F)sc2c1CCN(CC)C2 [4{3,3,0}, ethyl 6-ethyl-2-(perfluorobenzamido)-4,5,6,7-tetrahydrothieno[2,3-c]pyridine-3-carboxylate]",pIC50,[2],5.25
same,IC90,"[2]; THP-1, read-out: IC90 intracellular activity",9.75 µM
same,MIC,Mtb H37Rv [3],0.23 µM
same,MIC,Mycobacterium abscessus,1.11 µg/mL
same,"effect on synthesis of mycolic acids (TMM, TDM, mAG-attached mycolates)",[4],strongly inhibits the biosynthesis of all forms of mycolic acid; also recorded: strongly inhibits the synthesis of all forms of mycolic acids
same,MIC,Mtb H37Rv mc26206,0.4 µg/mL
same,"increase in potency compared to compound 4{4,3,0}",Mtb H37Rv [1],40 fold
same,MBC,Mtb H37Rv [5],< 5 µM
same,pIC50,"[6]; Homo sapiens, 72 h, THP-1 macrophage-like cells, 3 days, read-out: IC50 (concentration causing a 50% loss in viability)",5.21
same,macrophage viability IC50 relative to the MIC,[6]; times higher than the MIC,27 times
"NNC(=O)c1ccncc1 [INH, Isoniazid, reference compound]",pIC50,[2],6.62
"CCOC(=O)c1c(NC(=O)c2ccccc2)sc2c1CCCC2 [4{4,2,0}]",growth inhibition activity in words,Mtb H37Rv [1],no activity
"CCOC(=O)c1cc(-c2ccccc2)sc1NC(=O)c1c(F)c(F)c(F)c(F)c1F [4{5,3,0}, Ethyl 2-(perfluorobenzamido)-5-phenylthiophene-3-carboxylate]",MIC,Mtb H37Rv [1]; read-out: MIC,> 100 µg/mL
"CCN1CCc2c(sc(NC(=O)c3cc(C(F)(F)F)cc(C(F)(F)F)c3)c2C(=O)NCc2ccc(C)cc2)C1 [4{3,4,3}, 2-(3,5-Bis(trifluoromethyl)benzamido)-6-ethyl-N-(4-methylbenzyl)-4,5,6,7-tetrahydrothieno[2,3-c]pyridine-3-carboxamide]",MIC,Mtb H37Rv [1],≥ 200 µg/mL
"CCOC(=O)c1c(NC(=O)c2cc(C(F)(F)F)cc(C(F)(F)F)c2)sc2c1CCN(CC)C2 [4{3,4,0}, Ethyl 2-(3,5-bis(trifluoromethyl)benzamido)-6-ethyl-4,5,6,7-tetrahydrothieno[2,3-c]pyridine-3-carboxylate]",MIC,Mtb H37Rv [1]; read-out: MIC,> 100 µg/mL
